Source: patent US11667602B2, “Compounds and their use” (AstraZeneca AB, priority 2020, dated 2023)
Values after ≈ are worked out from the molar mass of the structure shown. Where two headings read alike, the source gives them in different places.

Key:
[1] = Human Hepatocyte Stability (Test D); format: in vitro ADME; settings: geometric mean if run multiple times; for hepatocyte CLint at 1 µM: human, cryopreserved pooled human hepatocytes (LiverPool 10-Donor)
In short: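 Pooled 10-donor cryopreserved human hepatocytes (≥80% viable) in L-15 medium at 0.25×10^6 cells per 0.25 mL well. Compound added from 100 μM acetonitrile solution; incubated at 37 °C with shaking, acetonitrile-quenched, LC-MS analysed. Clint (μL/min/10^6 cells) from ln % parent vs time slope; geometric mean of repeat runs.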

[2] = Human Plasma Protein Binding (Test B); format: in vitro ADME; settings: fraction unbound (fu)
In short: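 Human plasma protein binding run per the published Wernevik et al. (2020) integrated DMPK panel protocol. Values are fraction unbound (fu, % free); repeat runs averaged arithmetically.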

[3] = Rat Hepatocyte Stability (Test E); format: in vitro ADME; settings: geometric mean if run multiple times; for hepatocyte CLint: rat, hepatocytes
In short: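 Run per the published AstraZeneca-type rat hepatocyte stability protocol (Wernevik et al. panel). Values are mean intrinsic clearance, Clint in μl/min/10^6 cells; geometric mean used for repeated runs.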

human RXFP1 = target: T1, human RXFP1 (Homo sapiens, UniProt Q9HBX9); experiment: RXFP1 Hu cAMP (Test A); format: cell-based; design: expressed in transfected cells; host or cells: Jump-In T-REx CHO-K1 cells (ThermoFisher), induced with 10 ng/ml doxycycline for 24 h
T1 sequence (Q9HBX9 1-757): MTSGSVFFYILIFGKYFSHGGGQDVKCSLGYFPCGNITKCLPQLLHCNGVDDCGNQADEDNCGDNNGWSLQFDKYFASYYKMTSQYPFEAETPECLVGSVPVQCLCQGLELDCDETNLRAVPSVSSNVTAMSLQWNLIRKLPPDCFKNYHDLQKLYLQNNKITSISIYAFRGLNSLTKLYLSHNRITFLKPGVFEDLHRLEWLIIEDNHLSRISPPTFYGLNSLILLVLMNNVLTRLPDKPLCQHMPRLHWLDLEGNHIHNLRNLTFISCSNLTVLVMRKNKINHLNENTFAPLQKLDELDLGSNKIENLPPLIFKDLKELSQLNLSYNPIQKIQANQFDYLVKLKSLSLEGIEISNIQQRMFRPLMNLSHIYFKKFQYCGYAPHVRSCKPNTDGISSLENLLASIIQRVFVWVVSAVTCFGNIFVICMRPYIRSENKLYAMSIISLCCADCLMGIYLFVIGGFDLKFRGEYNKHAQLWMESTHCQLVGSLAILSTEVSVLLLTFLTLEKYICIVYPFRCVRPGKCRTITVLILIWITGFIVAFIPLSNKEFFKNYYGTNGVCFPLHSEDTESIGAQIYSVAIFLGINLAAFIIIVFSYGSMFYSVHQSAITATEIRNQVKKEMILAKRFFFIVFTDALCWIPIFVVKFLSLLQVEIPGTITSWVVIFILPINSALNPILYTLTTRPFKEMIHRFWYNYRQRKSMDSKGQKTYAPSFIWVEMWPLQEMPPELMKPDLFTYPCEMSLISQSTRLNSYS
In short: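 Cells: CHO-K1 stably carrying human RXFP1, expressed after 24 h 10 ng/ml doxycycline; 0.5 mM IBMX final, HTRF detection after 2 h at room temperature.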

Solubility (Test F) = format: physicochemical; settings: arithmetic mean if run multiple times
Description: The assay was conducted according to the Solubility Assay described in pages 164-167 of Wernevik, J. et al., “A Fully Integrated Assay Panel for Early Drug Metabolism and Pharmacokinetics Profiling”, Assay and Drug Development Technologies, 2020, 18(4), 157-179. Data are reported in Table 36 as solubility ([…]. Where the assay was run multiple times for the same compound, the arithmetic mean is reported.

[4] = Human Liver Microsomal Stability (Test C); format: in vitro ADME; settings: for microsomal CLint: human, liver microsomes
In short: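 Human liver microsome incubation per the Wernevik et al. integrated DMPK panel protocol. Intrinsic clearance reported as CLint in μl/min/mg protein, averaged arithmetically over repeat runs.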

[5] = RXFP1 Hu cAMP, read-out: Test A EC50

| hepatocyte CLint at 1 µM [1] [µL/min/1e6 cells] | Test B Human Plasma Protein Binding (% free) [2] [% free] | hepatocyte CLint [3] [µL/min/1e6 cells] | Test A Sinf (human RXFP1; RXFP1 Hu cAMP) [%] | EC50 (human RXFP1; [5]) [µM] | solubility (Solubility (Test F)) [µM] | microsomal CLint [4] [µL/min/mg] | Structure (SMILES) | Test D Human Hepatocyte Stability Clint ([1]; human hepatocytes) [μL/min/10^6 cells] | Test E Rat Hepatocyte Stability Clint ([3]; rat hepatocytes) [μL/min/10^6 cells] | Test C Human Liver Microsomal Stability Clint ([4]; human liver microsomes) [µL/min/mg] | EC50 (human RXFP1; Test A EC50, RXFP1 Hu cAMP) [µM] |
| --- | --- | --- | --- | --- | --- | --- | --- | --- | --- | --- | --- |
| 5 | <0.070 | 7 | 125 | 0.013 | 1000 (≈ 651 µg/mL) | 9.4 | COc1cc(F)c(O[C@H]2CC[C@@H](C(=O)O)CC2)cc1C(=O)N[C@@H]1[C@@H]2CC[C@@H](C2)[C@@H]1C(=O)Nc1cccc(S(F)(F)(F)(F)F)c1 [Example 509, (1S,4s)-4-(2-Fluoro-4-methoxy-5-(((1R,2R,3S,4S)-3-((3-(pentafluoro-A6-sulfaneyl)phenyl)carbamoyl)bicyclo[2.2.1]heptan-2-yl)carbamoyl)phenoxy)cyclohexane-1-carboxylic acid] |  |  |  |  |
| 3.3 | 1.2 | 9.8 | 129 | 0.32 | 6.5 (≈ 3.34 µg/mL) | < 3 | COc1cc(F)c(O[C@H]2CC[C@@](C)(C(=O)O)CC2)cc1C(=O)Nc1ccccc1C(=O)NCC(C)(C)C [Example 142, (1s,4s)-4-(2-Fluoro-4-methoxy-5-((2-(neopentylcarbamoyl)phenyl)-carbamoyl)phenoxy)-1-methylcyclohexane-1-carboxylic acid] |  |  |  |  |
| 5.3 | 4 | 7.2 | 106 | 0.0085 | 910 (≈ 540 µg/mL) | < 4.5 | COc1cc(C#N)c(O[C@H]2CC[C@@](C)(C(=O)O)CC2)cc1C(=O)N[C@@H]1[C@@H]2CC[C@@H](C2)[C@@H]1C(=O)NCC(C)(C)C(F)(F)F [Example 502, (1S,4s)-4-(2-Cyano-4-methoxy-5-(((1R,2R,3S,4S)-3-((3,3,3-trifluoro-2,2-dimethylpropyl)carbamoyl)bicyclo[2.2.1]heptan-2-yl)carbamoyl)phenoxy)-1-methylcyclohexane-1-carboxylic acid] |  |  |  |  |
| 9.2 | <0.30 | 18 |  | > 50 | > 1000 | 9.9 | COc1cc(F)c(-c2ccc(C(=O)O)cc2)cc1C(=O)N[C@@H]1[C@H](C(=O)Nc2cccc(S(=O)(=O)C(F)(F)F)c2)[C@H]2C=C[C@@H]1C2 (single isomer, unassigned) [Example 553] |  |  |  |  |
| 150 | 1.4 | > 300 | 103 |  | 880 (≈ 567 µg/mL) | 63 | COc1cc(F)c(OCCCCCC(=O)O)cc1C(=O)N[C@@H]1[C@H]2CC[C@H](C2)[C@@H]1C(=O)Nc1cccc(S(=O)(=O)C(F)(F)F)c1 [Example 435, 6-(2-Fluoro-4-methoxy-5-(((1S,2R,3S,4R)-3-((3-((trifluoromethyl)sulfonyl)phenyl)carbamoyl)bicyclo[2.2.1]heptan-2-yl)carbamoyl)phenoxy)hexanoic acid] |  |  |  |  |
| 5.6 | 0.81 | 26 | 108 | 0.14 | 1000 (≈ 672 µg/mL) | 30 | COc1cc(C#N)c(-c2ccc(OCC(=O)O)cc2)cc1C(=O)N[C@@H]1[C@H]2CC[C@H](C2)[C@@H]1C(=O)Nc1cccc(S(=O)(=O)C(F)(F)F)c1 [Example 329, 2-((2′-Cyano-4′-methoxy-5′-(((1S,2R,3S,4R)-3-((3-((trifluoromethyl)sulfonyl)phenyl)carbamoyl)bicyclo[2.2.1]heptan-2-yl)carbamoyl)-[1,1′-biphenyl]-4-yl)oxy)acetic acid] |  |  |  |  |
| 7.2 | 1 | 11 | 112 | 0.47 | 36 (≈ 25.4 µg/mL) | 21 | COc1cc(F)c(-c2ccc(C[C@@H](C(=O)O)N(C)C)cc2)cc1C(=O)N[C@@H]1[C@H]2CC[C@H](C2)[C@@H]1C(=O)Nc1cccc(S(=O)(=O)C(F)(F)F)c1 (racemic) [Example 289, (S)-2-(Dimethylamino)-3-(2′-fluoro-4′-methoxy-5′-(((1RS,2SR,3RS,4SR)-3-((3-((trifluoromethyl)sulfonyl)phenyl)carbamoyl)bicyclo[2.2.1]heptan-2-yl)carbamoyl)-[1,1′-biphenyl]-4-yl)propanoic acid] |  |  |  |  |
| 17 | 2.1 | 35 | 107 | 0.016 | 300 (≈ 172 µg/mL) | 110 | COc1cc(F)c(O[C@H]2CC[C@@](C)(C(=O)O)CC2)cc1C(=O)N[C@@H]1[C@H]2CC[C@H](C2)[C@@H]1C(=O)NCC1(C)CCCCC1 [Example 44] |  |  |  |  |
| 8 | 2.1 | 19 | 114 | 0.037 | 430 (≈ 285 µg/mL) | 32 | COc1cc(F)c(O[C@H]2CC[C@@](C)(C(=O)O)CC2)cc1C(=O)N[C@@H]1CCC[C@]1(F)C(=O)Nc1cccc(S(=O)(=O)C(F)(F)F)c1 [Example 355] |  |  |  |  |
| 30 | 3.4 | 52 | 97 | 0.81 | 2.5 (≈ 1.4 µg/mL) | 190 | COc1cc(F)c(O[C@H]2CC[C@@](C)(C(=O)O)CC2)cc1C(=O)N[C@@H]1[C@H]2CC[C@H](C2)[C@@H]1C(=O)NC(C(C)C)C(C)C [Example 40] |  |  |  |  |
| 7.7 | <0.31 | 13 | 112 | 0.48 | 17 (≈ 11.1 µg/mL) | < 3 | COc1cc(F)c(-c2ccc(F)c(C(=O)O)c2)cc1C(=O)N[C@H]1[C@@H](C(=O)Nc2cccc(S(=O)(=O)C(F)(F)F)c2)[C@@H]2C=C[C@H]1C2 (racemic) [Example 231] |  |  |  |  |

| Structure (SMILES) | hepatocyte CLint at 1 µM [1] [µL/min/1e6 cells] | Test B Human Plasma Protein Binding (% free) [2] [% free] | hepatocyte CLint [3] [µL/min/1e6 cells] | Test A Sinf (human RXFP1; RXFP1 Hu cAMP) [%] | EC50 (human RXFP1; [5]) [µM] | solubility (Solubility (Test F)) [µM] | microsomal CLint [4] [µL/min/mg] | Test D Human Hepatocyte Stability Clint ([1]; human hepatocytes) [μL/min/10^6 cells] | Test E Rat Hepatocyte Stability Clint ([3]; rat hepatocytes) [μL/min/10^6 cells] | Test C Human Liver Microsomal Stability Clint ([4]; human liver microsomes) [µL/min/mg] | EC50 (human RXFP1; Test A EC50, RXFP1 Hu cAMP) [µM] |
| --- | --- | --- | --- | --- | --- | --- | --- | --- | --- | --- | --- |
| COc1cc(F)c(O[C@H]2CC[C@@](C)(C(N)=O)CC2)cc1C(=O)N[C@@H]1[C@H]2CC[C@H](C2)[C@@H]1C(=O)NCC1(F)CCOCC1 [Example 147, (1R,2S,3R,4S)-3-(5-(((1s,4S)-4-Carbamoyl-4-methylcyclohexyl)oxy)-4-fluoro-2-methoxybenzamido)-N-((4-fluorotetrahydro-2H-pyran-4-yl)methyl)bicyclo-[2.2.1]heptane-2-carboxamide] |  | 36 |  | 111 | > 4.2 | 1000 (≈ 578 µg/mL) |  | 6.1 | 67 | 88 |  |
| COc1cc(F)c(O[C@H]2CC[C@@](C)(C(=O)O)CC2)cc1C(=O)N[C@@H]1[C@H]2CC[C@H](C2)[C@@H]1C(=O)NCC(C)(C)C [Example 35, (1S,4s)-4-(2-Fluoro-4-methoxy-5-(((1S,2R,3S,4R)-3-(neopentylcarbamoyl)bicyclo[2.2.1]heptan-2-yl)carbamoyl)phenoxy)-1-methylcyclohexane-1-carboxylic acid] | 2.7 | 8.2 | 23 |  |  | > 730 | 14 |  |  |  | 0.039 |
